Measured values reported in US4112228A, “7-(D-α-Hydroxy-2-arylacetamido)-3-(2-carboxyalkyl-2,3-dihydro-s-tri azolo-[4,3-b]pyridazin-3-on-6-ylthiomethyl)-3-cephem-4-carboxylic acids and derivatives” (priority 1977, dated 1978).
Values after ≈ are worked out from the molar mass of the structure shown.

Key:
S. aureus = assay: MIC by Steers' agar dilution method; format: cell-based; settings: Staphylococcus aureus
E. coli Juhl = assay: Standard experimental infection in mice; format: in vivo; settings: Table 6
Pr. mirabilis = assay: MIC by Steers' agar dilution method; settings: Proteus mirabilis
Pr. morganii = assay: MIC by Steers' agar dilution method; settings: Morganella morganii
Pr. rettgeri = assay: MIC by Steers' agar dilution method; settings: Providencia rettgeri
P. stuartii = assay: MIC by Steers' agar dilution method; settings: Providencia stuartii
Klebsiella sp. = assay: MIC by Steers' agar dilution method
[1] = strain not named (2nd of 2), MHA, Example 10

**Q.** What does the source list for `Cn1nnnc1SCC1=C(C(=O)O)N2C(=O)[C@@H](NC(=O)[C@H](O)c3ccccc3)[C@H]2SC1` [Cefamandole, cefamandole, reference compound]?
**A.** MIC (S. aureus; A9497, MHA, Table 1): 0.05 µg/mL (≈ 0.108 µM); MIC (S. aureus; BX-1633, MHA, Example 10): 0.4 µg/mL (≈ 0.865 µM); MIC (S. aureus; BX-1633 A9606, MHA, Table 1): 0.1 µg/mL (≈ 0.216 µM); MIC (S. aureus; Sa-2 Smith A9537, HIA, Table 4): 0.2 µg/mL (≈ 0.432 µM); MIC (S. aureus; Sa-2 Smith A9537, MHA, Table 2): 0.2 µg/mL (≈ 0.432 µM); MIC (S. aureus; Sa-2 Smith A9537, MHA, Table 4): 0.2 µg/mL (≈ 0.432 µM); MIC (S. aureus; Sa-2 Smith A9537, NA, Table 4): 0.2 µg/mL (≈ 0.432 µM); MIC (S. aureus; Sa-3 No. 193, MHA, Table 2): 0.2 µg/mL (≈ 0.432 µM); MIC (S. aureus; Sa-8, MHA, Table 2): 0.2 µg/mL (≈ 0.432 µM); MIC (S. aureus; Sa-9 No. 193, MHA, Table 2): 0.2 µg/mL (≈ 0.432 µM); MIC (S. aureus; Sa-10 A20239, MHA, Table 2): 0.4 µg/mL (≈ 0.865 µM); MIC (S. aureus; Sa-11 BX-1633 A9606 (β-lactamase), HIA, Table 4): 0.4 µg/mL (≈ 0.865 µM); MIC (S. aureus; Sa-11 BX-1633 A9606 (β-lactamase), MHA, Table 4): 0.4 µg/mL (≈ 0.865 µM); MIC (S. aureus; Sa-11 BX-1633 A9606 (β-lactamase), NA, Table 4): 0.4 µg/mL (≈ 0.865 µM); MIC (S. aureus; Sa-11 BX-1633 A9606, MHA, Table 2): 0.2 µg/mL (≈ 0.432 µM); MIC (S. aureus; Sa-12 A9497, MHA, Table 2): 0.1 µg/mL (≈ 0.216 µM); MIC (S. aureus; Sa-29 No. 193, MHA, Table 2): 0.8 µg/mL (≈ 1.73 µM); MIC (S. aureus; Sa-33 Terajima, MHA, Table 2): 0.0125 µg/mL (≈ 0.027 µM); MIC (S. aureus; Sa-34 A15092, MHA, Table 2): 0.2 µg/mL (≈ 0.432 µM); MIC (S. aureus; Sa-35 A15094, MHA, Table 2): 0.4 µg/mL (≈ 0.865 µM); MIC (S. aureus; Sa-36 Russell, MHA, Table 2): 0.4 µg/mL (≈ 0.865 µM); MIC (S. aureus; Sa-37 A9524, MHA, Table 2): 0.8 µg/mL (≈ 1.73 µM); MIC (S. aureus; Sa-38 A9534, MHA, Table 2): 0.2 µg/mL (≈ 0.432 µM); MIC (S. aureus; Sa-39 A9578, MHA, Table 2): 0.4 µg/mL (≈ 0.865 µM); MIC (S. aureus; Sa-40 A9601, MHA, Table 2): 0.4 µg/mL (≈ 0.865 µM); MIC (S. aureus; Sa-41 A9602, MHA, Table 2): 0.2 µg/mL (≈ 0.432 µM); MIC (S. aureus; Sa-44 A15097, HIA, Table 4): 3.1 µg/mL (≈ 6.7 µM); MIC (S. aureus; Sa-44 A15097, MHA, Table 2): 25 µg/mL (≈ 54.1 µM); MIC (S. aureus; Sa-44 A15097, MHA, Table 4): 3.1 µg/mL (≈ 6.7 µM); MIC (S. aureus; Sa-44 A15097, NA, Table 4): 6.3 µg/mL (≈ 13.6 µM); MIC (S. aureus; Sa-56 A9630, MHA, Table 2): 0.8 µg/mL (≈ 1.73 µM); MIC (S. aureus; Sa-57 A9748, MHA, Table 2): 3.1 µg/mL (≈ 6.7 µM); MIC (S. aureus; Sa-58 A15033, MHA, Table 2): 1.6 µg/mL (≈ 3.46 µM); MIC (S. aureus; Sa-59 A15096, MHA, Table 2): 6.3 µg/mL (≈ 13.6 µM); MIC (S. aureus; Sa-60 A20604, MHA, Table 2): 3.1 µg/mL (≈ 6.7 µM); MIC (S. aureus; Sa-61 A20605, MHA, Table 2): 6.3 µg/mL (≈ 13.6 µM); MIC (S. aureus; Sa-62 A20606, MHA, Table 2): 0.8 µg/mL (≈ 1.73 µM); MIC (S. aureus; Sa-63 A20607, MHA, Table 2): 12.5 µg/mL (≈ 27 µM); MIC (S. aureus; Sa-64 A20608, MHA, Table 2): 6.3 µg/mL (≈ 13.6 µM); MIC (S. aureus; Sa-65 A20609, MHA, Table 2): 6.3 µg/mL (≈ 13.6 µM); MIC (S. aureus; Sa-66 A20610, MHA, Table 2): 6.3 µg/mL (≈ 13.6 µM); MIC (S. aureus; Sa-67 A20611, MHA, Table 2): 6.3 µg/mL (≈ 13.6 µM); MIC (S. aureus; Sa-68 A20612, MHA, Table 2): 0.4 µg/mL (≈ 0.865 µM); MIC (S. aureus; Sa-69 A20613, MHA, Table 2): 6.3 µg/mL (≈ 13.6 µM); MIC (S. aureus; Smith A9537, MHA, Table 1): 0.05 µg/mL (≈ 0.108 µM); MIC (S. aureus; Smith, MHA, Example 10): 0.2 µg/mL (≈ 0.432 µM); MIC (S. aureus; strain not named, MHA, Example 10): 0.1 µg/mL (≈ 0.216 µM); No. of survivors/No. tested (E. coli Juhl; 0.4 mg./kg.): 0/5; No. of survivors/No. tested (E. coli Juhl; 1.6 mg./kg.): 2/5; No. of survivors/No. tested (E. coli Juhl; 6.3 mg./kg.): 5/5; No. of survivors/No. tested (E. coli Juhl; 25 mg./kg.): 5/5; ED50 (E. coli Juhl; Escherichia coli, read-out: PD50): 1.8 mg/kg; MIC (Pr. mirabilis; A9554, MHA, Table 1): 0.4 µg/mL (≈ 0.865 µM); MIC (Pr. mirabilis; Pm-1 A9554, HIA, Table 4): 0.4 µg/mL (≈ 0.865 µM); MIC (Pr. mirabilis; Pm-1 A9554, NA, Table 4): 0.2 µg/mL (≈ 0.432 µM); MIC (Pr. mirabilis; Pm-2 A9900, HIA, Table 4): 0.4 µg/mL (≈ 0.865 µM); MIC (Pr. mirabilis; Pm-2 A9900, MHA, Table 3): 1.6 µg/mL (≈ 3.46 µM); MIC (Pr. mirabilis; Pm-2 A9900, MHA, Table 4): 0.8 µg/mL (≈ 1.73 µM); MIC (Pr. mirabilis; Pm-2 A9900, NA, Table 4): 0.4 µg/mL (≈ 0.865 µM); MIC (Pr. mirabilis; Pm-3 A20119, MHA, Table 3): 3.1 µg/mL (≈ 6.7 µM); MIC (Pr. mirabilis; Pm-4 A20454, MHA, Table 3): 1.6 µg/mL (≈ 3.46 µM); MIC (Pr. mirabilis; Pm-6 A21222, MHA, Table 3): 1.6 µg/mL (≈ 3.46 µM); MIC (Pr. mirabilis; [1]): 0.2 µg/mL (≈ 0.432 µM); MIC (Pr. morganii; A9553, MHA, Table 1): > 100 µg/mL; MIC (Pr. morganii; A20031, MHA, Table 1): 0.8 µg/mL (≈ 1.73 µM); MIC (Pr. morganii; Pg-1 A9553 (β-lactamase), HIA, Table 4): > 100 µg/mL; MIC (Pr. morganii; Pg-1 A9553 (β-lactamase), MHA, Table 4): > 100 µg/mL; MIC (Pr. morganii; Pg-1 A9553 (β-lactamase), NA, Table 4): > 100 µg/mL; MIC (Pr. morganii; Pg-1 A9553, MHA, Table 3): > 100 µg/mL; MIC (Pr. morganii; Pg-2 A20031, HIA, Table 4): 0.8 µg/mL (≈ 1.73 µM); MIC (Pr. morganii; Pg-2 A20031, MHA, Table 3): 1.6 µg/mL (≈ 3.46 µM); MIC (Pr. morganii; Pg-2 A20031, MHA, Table 4): 0.8 µg/mL (≈ 1.73 µM); MIC (Pr. morganii; Pg-2 A20031, NA, Table 4): 0.4 µg/mL (≈ 0.865 µM); MIC (Pr. morganii; Pg-3 A9636, MHA, Table 3): 1.6 µg/mL (≈ 3.46 µM); MIC (Pr. morganii; Pg-5 A15166, MHA, Table 3): 0.2 µg/mL (≈ 0.432 µM); MIC (Pr. morganii; Pg-6 A20455 (β-lactamase), HIA, Table 4): 3.1 µg/mL (≈ 6.7 µM); MIC (Pr. morganii; Pg-6 A20455 (β-lactamase), MHA, Table 4): 1.6 µg/mL (≈ 3.46 µM); MIC (Pr. morganii; Pg-6 A20455 (β-lactamase), NA, Table 4): 1.6 µg/mL (≈ 3.46 µM); MIC (Pr. morganii; Pg-6 A20455, MHA, Table 3): 1.6 µg/mL (≈ 3.46 µM); MIC (Pr. morganii; Pg-7 A20457, MHA, Table 3): 0.8 µg/mL (≈ 1.73 µM); MIC (Pr. morganii; Pg-8 A15153, MHA, Table 3): 0.8 µg/mL (≈ 1.73 µM); MIC (Pr. morganii; Pg-9 A15149, MHA, Table 3): 3.1 µg/mL (≈ 6.7 µM); MIC (Pr. morganii; strain not given (1st of 2), MHA, Example 10): > 100 µg/mL; MIC (Pr. morganii; [1]): 0.8 µg/mL (≈ 1.73 µM); MIC (Pr. rettgeri; A15167, MHA, Table 1): 0.2 µg/mL (≈ 0.432 µM); MIC (Pr. rettgeri; MHA, Example 10): 0.4 µg/mL (≈ 0.865 µM); MIC (Pr. rettgeri; Pr-1 A15167, HIA, Table 4): 0.1 µg/mL (≈ 0.216 µM); MIC (Pr. rettgeri; Pr-1 A15167, MHA, Table 3): 0.2 µg/mL (≈ 0.432 µM); MIC (Pr. rettgeri; Pr-1 A15167, MHA, Table 4): 0.2 µg/mL (≈ 0.432 µM); MIC (Pr. rettgeri; Pr-1 A15167, NA, Table 4): 0.2 µg/mL (≈ 0.432 µM); MIC (Pr. rettgeri; Pr-2 A9637, MHA, Table 3): 0.1 µg/mL (≈ 0.216 µM); MIC (Pr. rettgeri; Pr-4 A20645, MHA, Table 3): 0.1 µg/mL (≈ 0.216 µM); MIC (Pr. rettgeri; Pr-5 A20915, MHA, Table 3): 0.8 µg/mL (≈ 1.73 µM); MIC (Pr. rettgeri; Pr-6 A20920, MHA, Table 3): 0.2 µg/mL (≈ 0.432 µM); MIC (P. stuartii; Ps-1 A20745, HIA, Table 4): 6.3 µg/mL (≈ 13.6 µM); MIC (P. stuartii; Ps-1 A20745, MHA, Table 3): 0.8 µg/mL (≈ 1.73 µM); MIC (P. stuartii; Ps-1 A20745, MHA, Table 4): 1.6 µg/mL (≈ 3.46 µM); MIC (P. stuartii; Ps-1 A20745, NA, Table 4): 6.3 µg/mL (≈ 13.6 µM); MIC (P. stuartii; Ps-2 A20894, HIA, Table 4): 0.4 µg/mL (≈ 0.865 µM); MIC (P. stuartii; Ps-2 A20894, MHA, Table 3): 0.8 µg/mL (≈ 1.73 µM); MIC (P. stuartii; Ps-2 A20894, MHA, Table 4): 0.2 µg/mL (≈ 0.432 µM); MIC (P. stuartii; Ps-2 A20894, NA, Table 4): 0.4 µg/mL (≈ 0.865 µM); MIC (P. stuartii; Ps-3 A20911 (β-lactamase), HIA, Table 4): 6.3 µg/mL (≈ 13.6 µM); MIC (P. stuartii; Ps-3 A20911 (β-lactamase), MHA, Table 4): 3.1 µg/mL (≈ 6.7 µM); MIC (P. stuartii; Ps-3 A20911 (β-lactamase), NA, Table 4): 6.3 µg/mL (≈ 13.6 µM); MIC (P. stuartii; Ps-3 A20911, MHA, Table 3): 0.8 µg/mL (≈ 1.73 µM); MIC (P. stuartii; Ps-4 A21051, MHA, Table 3): 25 µg/mL (≈ 54.1 µM); MIC (P. stuartii; Ps-5 A21057, MHA, Table 3): 0.8 µg/mL (≈ 1.73 µM); MIC (Klebsiella sp.; Kx-2 A9662, MHA, Table 3): 1.6 µg/mL (≈ 3.46 µM); MIC (Klebsiella sp.; Kx-3 A20346 (β-lactamase), HIA, Table 4): 0.4 µg/mL (≈ 0.865 µM); MIC (Klebsiella sp.; Kx-3 A20346 (β-lactamase), MHA, Table 4): 0.4 µg/mL (≈ 0.865 µM); MIC (Klebsiella sp.; Kx-3 A20346 (β-lactamase), NA, Table 4): 0.4 µg/mL (≈ 0.865 µM); MIC (Klebsiella sp.; Kx-3 A20346, MHA, Table 3): 0.8 µg/mL (≈ 1.73 µM)
